Measurements reported in PMC6694155, “PTPσ inhibitors promote hematopoietic stem cell regeneration” (Nature Communications, 2019).
“And” between values parts separate entries of the source, which are not always exact repeats. Identical values can stand only once. “Also recorded” adds a separate entry of the source.

Legend:
[1] = test system: RHOA-GTP in BM lin− cells; test: G-LISA activation assay: RHOA-GTP; type: cell-based, mouse; conditions: for RHOA-GTP level (G-LISA): Supplementary Figure 7b (left panel)
Description: The RAC1-GTP, RHOA-GTP, and CDC42-GTP activation levels in BM lin^− cells were measured using a colorimetric-based RAC1-, RHOA-, and CDC42 G-LISA Activation Assay Kit (Cytoskeleton, Inc.). BM cells from femurs and tibias were isolated from 12-week-old Ptprs^+/+ and Ptprs^−/− mice. Cells were then depleted of lineage-committed cells with Direct Lineage Cell Depletion Kit (Miltenyi Biotec, #130-110-470; 1:5). The BM lin^− cell fraction was then serum starved in Iscove’s modified Dulbecco’s medium (IMDM) and treated with either vehicle (equal amount of DMSO) or 1 μg/mL DJ001 for 10 min at 37 °C. After treatment, cells were washed with ice-cold PBS and then placed in lysis buffer supplemented with protease inhibitor. Lysate concentrations were measured by Pierce^TM BCA Protein Assay Kit (ThermoFisher Scientific). G-LISA was performed according to the manufacturer’s instructions. Briefly, 12.5 μg of lysates was added to a GTP-binding protein pre-coated plate and active RAC1-GTP, RHOA-GTP, or CDC42-GTP levels were measured at 490 nm using a PowerWave XS2 microplate reader (BioTek).

[2] = test system: human BM CD34+ cells; test: CFU-GEMM from 300 cGy-irradiated human BM CD34+ cells; type: cell-based
Description: CFC assays (colony-forming unit-granulocyte monocyte), burst-forming unit-erythroid, and CFU-GEMM were performed using MethoCult GF M3434 (Stemcell Technologies)[6]. For all in vitro assays, BM CD34^−KSL cells, KSL cells, and Lin^− cells were cultured in TSF media (IMDM, 10% FBS, 1% pen-strep, 20 ng/mL recombinant mouse TPO, 125 ng/mL recombinant mouse SCF, 50 ng/mL recombinant mouse Flt3 ligand). Recombinant mouse SCF, Flt3 ligand, and TPO were purchased from R&D Systems. For competitive repopulation assays, BM cells were isolated from donor 10–12-week-old female CD45.2^+ mice. Recipient 10-week-old female CD45.1^+ B6.SJL mice were irradiated with 950 cGy TBI using a Cs137 irradiator and donor BM cells were administered via tail vein injection along with a competing dose of 1 × 10^5 non-irradiated host BM cells. Multilineage donor hematopoietic cell engraftment was measured in the PB by flow cytometry.
Human BM mononuclear cells were purchased from AllCells. Cryopreserved human BM cells were recovered in IMDM + 10% FBS + 1% penicillin–streptomycin and then positively selected for CD34^+ stem/progenitor cells by using CD34 MicroBead Kit (Miltenyi Biotec, #130-046-702, 1:5). […]

[3] = biological target: T1, PPα (Protein Phosphatase 1 Catalytic Subunit alpha) (Homo sapiens, UniProt P62136); test: PhosphataseProfiler screen: PPα; type: biochemical; conditions: replicates
T1 construct: purchased Eurofins Pharma Discovery Services UK
T1 sequence (P62136 whole entry): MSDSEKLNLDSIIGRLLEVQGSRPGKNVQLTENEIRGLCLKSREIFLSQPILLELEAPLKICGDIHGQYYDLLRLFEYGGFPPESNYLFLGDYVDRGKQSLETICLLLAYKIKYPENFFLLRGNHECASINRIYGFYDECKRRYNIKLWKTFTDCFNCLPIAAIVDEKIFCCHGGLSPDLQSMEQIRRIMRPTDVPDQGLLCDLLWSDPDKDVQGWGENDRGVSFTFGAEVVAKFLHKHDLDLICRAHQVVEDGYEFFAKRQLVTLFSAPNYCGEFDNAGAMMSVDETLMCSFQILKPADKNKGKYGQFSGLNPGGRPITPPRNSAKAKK
Description: Compound DJ001 was evaluated in a PhosphataseProfiler™ screen at 10 μM and 1 μM (2.7 μg/mL and 0.27 μg/mL) concentrations at Eurofins Pharma Discovery Services UK (Study number UK022-0004033) against a panel of 21 Phosphatases. In each experiment, the respective reference antagonist/agonist was tested directly with DJ001 and the data were compared with historical values determined at Eurofins. DJ001 compound inhibition was calculated as percentage inhibition of the enzymatic activity compared with control.

[4] = test system: progeny of irradiated human BM CD34+ cells in NSG mice; test: Human BM transplantation assay in NSG mice; type: in vivo
Description: Human BM mononuclear cells were purchased from AllCells. Cryopreserved human BM cells were recovered in IMDM + 10% FBS + 1% penicillin–streptomycin and then positively selected for CD34^+ stem/progenitor cells by using CD34 MicroBead Kit (Miltenyi Biotec, #130-046-702, 1:5). CD34^+ cells were cultured in human TSF media (IMDM, 10%FBS, 1% pen-strep, 20 ng/mL recombinant human TPO, 125 ng/mL recombinant human SCF, 50 ng/mL recombinant human Flt3 ligand (R&D Systems). The progeny of 2 × 10^5 irradiated, human BM CD34^+ cultured for 36 h and treated with DJ001 at 5 μg/mL, were transplanted via tail vein injection into 10–12-week-old NSG mice preconditioned with 275 cGy TBI. Multilineage donor hematopoietic cell engraftment was monitored in the PB and BM by flow cytometry. The PB or BM cells were stained with BV605-conjugated anti-mouse CD45 (BioLegend, #103139, 1:100), AF647-conjugated anti-human CD34 (BioLegend, #343618, 1:100), FITC-conjugated anti-human CD33 (BD Biosciences, #555626, 1:100), V450-conjugated anti-human CD45 (BD Biosciences, #560368, 1:100), APC-conjugated anti-human CD3 (BD Biosciences, #555342, 1:100), and APC-Cy7-conjugated anti-human CD19 (BD Biosciences, #557791, 1:100) antibodies.

[5] = progeny of irradiated human BM CD34+ cells, individual mice, in % (unit assumed)

Structure (SMILES): O=C(/C=C\Nc1cccc([N+](=O)[O-])c1)c1ccccc1 [DJ001, (Z)-3-((3-nitrophenyl)amino)-1-phenylprop-2-en-1-one]
- activation of RhoA ([1]; BM lin− cells, 1 μg/mL DJ001, 10 min): did not alter the activation
- RHOA-GTP level (G-LISA) ([1]; Ptprs+/+ cells): 0.1099 and 0.0821 and 0.1369
- RHOA-GTP level (G-LISA) ([1]; Ptprs-/- cells): 0.1117 and 0.0668 and 0.0845
- Figure 5b: CFU-GEMM ([2]; 300 cGy-irradiated human BM CD34+ cells, replicates): 8 and 13 and 15 and 22 and 19 and 14
- recovery of multipotent CFU-GEMMs ([2]; 72 h following 300 cGy irradiation of human BM CD34+ cells): increased the recovery of multipotent CFU-GEMMs
- Supplementary Figure 1: PP activity ([3]; 2.7 μg/mL DJ001): 87 and 90 and 89
- Supplementary Figure 1: PP activity ([3]; 0.27 g/mL DJ001): 99 and 95 (2×)
- engraftment of human CD45+ cells, CD19+ B cells, CD33+ myeloid cells, and CD3+ T cells vs control ([4]; NSG mice, 12 weeks post transplant): several – fold increased multilineage engraftment; also recorded: substantially increased engraftment
- Figure 5g (center left panel): human engraftment in NSG mice [4, 5]: 0.66 and 2.13 and 0.13 and 1.76 and 1.28 and 0.22 and 0.24 and 0.04 and 0.73 and 2.53 and 0.35
- Figure 5g (center panel): human engraftment in NSG mice [4, 5]: 2.25 and 0.8 and 0.17 and 0.56 and 4.4 and 0.31 and 5 and 1.4 and 1.23 and 5.34 and 6.53
- Figure 5g (center right panel): human engraftment in NSG mice [4, 5]: 0.24 and 0.34 and 1.91 and 0.16 and 0.67 and 0.92 and 0.14 and 0.94 and 0.48 and 4.07 and 1.41 and 1.1
- Figure 5g (left panel): human engraftment in NSG mice [4, 5]: 4.16 and 2.8 and 0.36 and 1.45 and 9.56 and 0.9 and 12.2 and 3.82 and 4.68 and 14.9 and 12.5
- Figure 5g (right panel): human engraftment in NSG mice [4, 5]: 0.25 and 1.48 and 0.96 and 0.1 and 0.49 and 1.86 and 0.23 and 1.47 and 1.13 and 2 and 5.49 and 5.38
